This note sets out measurements from PMC9878345 (Frontiers in Chemistry, 2023).

In data set [1] the target is T1, SARS-CoV-2 PLpro (Severe acute respiratory syndrome coronavirus 2, UniProt P0DTD1). Description: biochemical. In kind it is biochemical. The note with it: for inhibition at 50 µM / inhibition at 100 µM / inhibition at 200 µM: read-out: inhibition of PLpro proteolytic activity; for inhibition activity in SARS-CoV-2 PLpro enzymatic activity: concentration not stated; for inhibitory activity towards PLpro proteolytic activity (in words): at the tested concentrations (50, 100, 200 μM); for IC50 / IC50, PLpro proteolytic activity (Figure 5) / IC50 towards PLpro proteolytic activity: dose-dependent study; for IC50 / IC50 towards PLpro proteolytic activity: 0–100 µM, non-linear regression.

Data set [2] has as its target T1, SARS-CoV-2 PLpro. The experiment in a line: biochemical.
The test system of a further data set is Vero-E6 cells. Description: Cell viability assay (PrestoBlue). The format is cell-based, African green monkey. Particulars: for cytotoxicity (in words): 24, 48, 72 h at 50, 100, 200 µM; for cytotoxicity: at the tested doses and time points. On the procedure: The cytotoxic effect of selected phytochemicals were carried out with Vero-E6 cells using PrestoBlue™ Cell Viability kit as described earlier ([Lewis et al., 2022]). Briefly, Vero-E6 cells (20,000 cells) were seeded overnight in 96 well plates. Then, 100 µL of complete media (EMEM+10% FBS+1%Pen/Strep) was added to refresh the cells along with 50, 100, and 200 µM selected phytochemicals, and incubation was continued for 24, 48, and 72 hs at 37°C respectively. Cytotoxicity detection regent (PrestoBlue solution) was added and incubated for additional 1h at 37°C. The absorbance was taken at 530/25 excitation and 590/35 nm emission using Bio-Tek Synergy HT fluorescent plate reader.

The mark [3] stands for this setting: read-out: IC50 towards PLpro proteolytic activity.
The mark [4] stands for this setting: read-out: inhibition of PLpro DUB activity.

“And” between values parts separate entries of the source, which are not always exact repeats. Equal entries are not always repeated. Where two headings read alike, the source gives them in different places.

As a reminder, the inhibition is how much of the control response was suppressed. Regarding `O=C(O[C@@H]1Cc2c(O)cc(O)cc2O[C@@H]1c1cc(O)c(O)c(O)c1)c1cc(O)c(O)c(O)c1` [EGCG, epigallocatechin gallate], the inhibition at 50 µM was found to be 65% on SARS-CoV-2 PLpro [1] (50 μM, vs DMSO control) and 70% at SARS-CoV-2 PLpro [2] (50 μM, vs DMSO control, read-out: inhibition of PLpro DUB activity). The inhibition at 100 µM worked out at 81% at SARS-CoV-2 PLpro [1] (100 μM, vs DMSO control) and 90% at SARS-CoV-2 PLpro [2] (100 μM, vs DMSO control, read-out: inhibition of PLpro DUB activity). In addition, the inhibition at 200 µM on SARS-CoV-2 PLpro [1] (200 μM, vs DMSO control) worked out at 97%; on SARS-CoV-2 PLpro [2] (200 μM, vs DMSO control, read-out: inhibition of PLpro DUB activity), 95%. The “inhibition activity in SARS-CoV-2 PLpro enzymatic activity” value at SARS-CoV-2 PLpro [1] is on record as “more than 50%”. The “cytotoxicity (in words)” value in the data set with Vero-E6 cells was “not c ytotoxic”.
As to `C[C@@H]1CC[C@H]2[C@@H](C)C(=O)O[C@@H]3O[C@@]4(C)CC[C@@H]1[C@]32OO4` [artemisinin, reference compound], the “inhibitory activity towards PLpro proteolytic activity (in words)” value on SARS-CoV-2 PLpro [1] is reported as “did not show inhibitory activity”.
On to `C=C(C)[C@@H]1CC[C@]2(C(=O)O)CC[C@]3(C)[C@H](CC[C@@H]4[C@@]5(C)CC[C@H](O)C(C)(C)[C@@H]5CC[C@]43C)[C@@H]12` [betulinic acid], for which the “inhibitory activity towards PLpro proteolytic activity (in words)” value at SARS-CoV-2 PLpro [1] is “did not show inhibitory activity”.
For orientation: IC50 means the concentration at which inhibition is half-maximal. In the case of `O.Oc1cc(O)c2c(c1)O[C@H](c1ccc(O)c(O)c1)[C@@H](O)C2` [catechin], the “inhibition of PLpro proteolytic activity” value was 25% against SARS-CoV-2 PLpro [1] (50 μM, vs DMSO control); 44% against SARS-CoV-2 PLpro [1] (100 μM, vs DMSO control); 64% against SARS-CoV-2 PLpro [1] (200 μM, vs DMSO control). Moreover, the IC50 on SARS-CoV-2 PLpro [1] (setting [3]) was determined as 14.2 µM. For the same compound, the “inhibition of PLpro DUB activity” value on SARS-CoV-2 PLpro [2] (50 μM, vs DMSO control) came to 30%; at SARS-CoV-2 PLpro [2] (100 μM, vs DMSO control), 40%; on SARS-CoV-2 PLpro [2] (200 μM, vs DMSO control), 50%.
Consider `CN1Cc2c(ccc3c2OCO3)[C@@H]2[C@H]1c1cc3c(cc1C[C@@H]2O)OCO3` [chelidonine], for which, on SARS-CoV-2 PLpro [1], the “inhibitory activity towards PLpro proteolytic activity (in words)” value is recorded as “only colchicine out of all the tested alkaloids”.
As for `O=c1c(-c2ccc(O)cc2)coc2cc(O)ccc12` [daidzein], the “inhibitory activity towards PLpro proteolytic activity (in words)” value at SARS-CoV-2 PLpro [1] was “none of the tested isoflavone compounds such as daidzein, daidzin, genistein, genistin, and isoflorentin demonstrated an inhibitory effect”.
`O=c1c(-c2ccc(O)cc2)coc2cc(O[C@@H]3O[C@H](CO)[C@@H](O)[C@H](O)[C@H]3O)ccc12` [daidzin]: the “inhibitory activity towards PLpro proteolytic activity (in words)” value on SARS-CoV-2 PLpro [1] was “none of the tested isoflavone compounds such as daidzein, daidzin, genistein, genistin, and isoflorentin demonstrated an inhibitory effect”.
For `C=CCSSCC=C` [diallyl disulfide], the “inhibitory activity towards PLpro proteolytic activity (in words)” value on SARS-CoV-2 PLpro [1] was “did not show inhibitory activity”.
In the case of `C=CCSSSCC=C` [diallyl trisulfide], the “inhibitory activity towards PLpro proteolytic activity (in words)” value against SARS-CoV-2 PLpro [1] is given as “did not show inhibitory activity”.
In the case of `O=c1c(-c2ccc(O)cc2)coc2cc(O)cc(O)c12` [genistein], the “inhibitory activity towards PLpro proteolytic activity (in words)” value against SARS-CoV-2 PLpro [1] is “none of the tested isoflavone compounds such as daidzein, daidzin, genistein, genistin, and isoflorentin demonstrated an inhibitory effect”.
Consider `O=c1c(-c2ccc(O)cc2)coc2cc(O[C@@H]3O[C@H](CO)[C@@H](O)[C@H](O)[C@H]3O)cc(O)c12` [genistin], for which the “inhibitory activity towards PLpro proteolytic activity (in words)” value against SARS-CoV-2 PLpro [1] is “none of the tested isoflavone compounds such as daidzein, daidzin, genistein, genistin, and isoflorentin demonstrated an inhibitory effect”.
Take `CC1(C)[C@@H](O[C@H]2O[C@H](C(=O)O)[C@@H](O)[C@H](O)[C@H]2O[C@@H]2O[C@H](C(=O)O)[C@@H](O)[C@H](O)[C@H]2O)CC[C@]2(C)[C@H]3C(=O)C=C4[C@@H]5C[C@@](C)(C(=O)O)CC[C@]5(C)CC[C@@]4(C)[C@]3(C)CC[C@@H]12` [glycyrrhizic acid]: the “inhibitory activity towards PLpro proteolytic activity (in words)” value against SARS-CoV-2 PLpro [1] was “did not show inhibitory activity”.
On to `COc1cc(-c2coc3cc4c(c(OC)c3c2=O)OCO4)cc(OC)c1OC` [isoflorentin], for which the “inhibitory activity towards PLpro proteolytic activity (in words)” value against SARS-CoV-2 PLpro [1] is “none of the tested isoflavone compounds such as daidzein, daidzin, genistein, genistin, and isoflorentin demonstrated an inhibitory effect”.
Consider `O[C@H]1[C@H]2c3cc4c(cc3CN3CCC(=C[C@@H]1O)[C@H]23)OCO4` [lycorine], for which the “inhibitory activity towards PLpro proteolytic activity (in words)” value on SARS-CoV-2 PLpro [1] is “only colchicine out of all the tested alkaloids”.
As to `O=c1c2cc(O)c(O)cc2oc2cc(O)c([C@@H]3O[C@H](CO)[C@@H](O)[C@H](O)[C@H]3O)c(O)c12` [mangiferin, 2-β-D-glucopyranosyl-1,3,6,7-tetrahydroxy-9H-xanthan-9-one], the IC50 on SARS-CoV-2 PLpro [1] (IC50 towards PLpro proteolytic activity) is 95.3 µM and 43.4 µM; on SARS-CoV-2 PLpro [2], 104 µM. The “inhibition of PLpro proteolytic activity” value against SARS-CoV-2 PLpro [1] (concentration not given) is recorded as 70%. For the same compound, the inhibition at 200 µM on SARS-CoV-2 PLpro [1] is > 50%; on SARS-CoV-2 PLpro [2] (setting [4]), 10 to 30%. Further, the “cytotoxicity (in words)” value in the data set on Vero-E6 cells was “not c ytotoxic”.
Regarding `O=c1c(O)c(-c2cc(O)c(O)c(O)c2)oc2cc(O)cc(O)c12` [myricetin, 3,5,7, 3′, 4′, 5′-hexahydroxyflavone], the cytotoxicity in the data set on Vero-E6 cells was 20-30%.
For `CC1(C)OC(=O)C=C[C@]2(C)[C@H]3CC[C@@]4(C)[C@H](c5ccoc5)OC(=O)[C@H]5O[C@]54[C@]3(C)C(=O)C[C@@H]12` [obacunone], on SARS-CoV-2 PLpro [1], the “inhibitory activity towards PLpro proteolytic activity (in words)” value is listed as “did not show inhibitory activity”.
Take `C/C=C1/[C@H](O[C@@H]2O[C@H](CO)[C@@H](O)[C@H](O)[C@H]2O)OC=C(C(=O)OC)[C@H]1CC(=O)OCCc1ccc(O)c(O)c1` [oleuropein]: on SARS-CoV-2 PLpro [1], the “IC50, PLpro proteolytic activity (Figure 5)” value is “Ambiguous”; the “IC50 towards PLpro proteolytic activity” value is on record as “ambiguous”; the inhibition at 200 µM came out at 60%. Moreover, 132 µM corresponded to half-maximal inhibition at SARS-CoV-2 PLpro [2] (IC50). Also, the inhibition at 200 µM at SARS-CoV-2 PLpro [2] (setting [4]) is 50%. Also, in the data set with Vero-E6 cells, the cytotoxicity is 20-30%.
As to `O=C(/C=C/c1ccc(O)c(O)c1)O[C@H](Cc1ccc(O)c(O)c1)C(=O)O` [rosmarinic acid], the inhibition at 200 µM on SARS-CoV-2 PLpro [1] is 50%.
For the compound `C[C@@H]1O[C@@H](OC[C@H]2O[C@@H](Oc3c(-c4ccc(O)c(O)c4)oc4cc(O)cc(O)c4c3=O)[C@H](O)[C@@H](O)[C@@H]2O)[C@H](O)[C@H](O)[C@H]1O` [rutin], at SARS-CoV-2 PLpro [1], the inhibition at 50 µM came to 70%, the inhibition at 100 µM stood at 70% and the inhibition at 200 µM worked out at 88%. Also, in the data set with Vero-E6 cells, the “cytotoxicity (in words)” value is on record as “not c ytotoxic”.
Regarding `O=C1C=CC[C@@H]2[C@H]3CCCN4CCC[C@@H](CN12)[C@@H]34` [sophocarpine], the “inhibitory activity towards PLpro proteolytic activity (in words)” value on SARS-CoV-2 PLpro [1] is on record as “only colchicine out of all the tested alkaloids”.
Turning to `COc1ccc2cc1Oc1ccc(cc1)C[C@H]1c3cc(c(OC)cc3CCN1C)Oc1c(OC)c(OC)cc3c1[C@H](C2)N(C)CC3` [tetrandrine], at SARS-CoV-2 PLpro [1], the “inhibitory activity towards PLpro proteolytic activity (in words)” value is “only colchicine out of all the tested alkaloids”.
For the compound `O=c1c(O)cc([C@H]2Oc3cc(O)cc(O)c3C[C@H]2O)cc2c([C@H]3Oc4cc(O)cc(O)c4C[C@H]3O)cc(O)c(O)c12` [theaflavin], the inhibition at 50 µM at SARS-CoV-2 PLpro [1] (50 μM, vs DMSO control) was 94%. The inhibition at 200 µM at SARS-CoV-2 PLpro [1] (200 μM, vs DMSO control) turned out to be 100%. The “inhibition activity in SARS-CoV-2 PLpro enzymatic activity” value on SARS-CoV-2 PLpro [1] is recorded as “more than 50%”. For the same compound, the IC50 on SARS-CoV-2 PLpro [1] (setting [3]) stood at 7.3 µM; on SARS-CoV-2 PLpro [2] (dose-dependent study, 0–100 µM, non-linear regression, read-out: IC50 for PLpro DUB activity) it was 13.2 µM; at SARS-CoV-2 PLpro [2] (dose-dependent study, read-out: IC50, PLpro DUB activity (Figure 6)) it was 13.2 µM. Also, the “inhibition of PLpro DUB activity” value at SARS-CoV-2 PLpro [2] (50 μM, vs DMSO control) is “complete inhibition”.
Consider `COc1cc2oc3cc(O)c(OC)c(CC=C(C)C)c3c(=O)c2c(O)c1CC=C(C)C` [β-mangostin, b-Mangostin], for which, on SARS-CoV-2 PLpro [1], the “inhibitory activity towards PLpro proteolytic activity (in words)” value is “Only γ-mangostin and mangiferin exhibited more than 50% inhibitory activity”.
In the case of `CC(C)=CCc1c(O)cc2oc3cc(O)c(O)c(CC=C(C)C)c3c(=O)c2c1O` [γ-mangostin], on SARS-CoV-2 PLpro [1], the “IC50, PLpro proteolytic activity (Figure 5)” value is recorded as “Ambiguous” and the “IC50 towards PLpro proteolytic activity” value is recorded as “ambiguous”.
evodiamine: the “inhibitory activity towards PLpro proteolytic activity (in words)” value at SARS-CoV-2 PLpro [1] is reported as “only colchicine out of all the tested alkaloids”.
